# Article PMC12564596 (2025)
# Tests used:
# [1] = test system: HS-Apt-PEN (DNA, aptamer) CTGAATTGGATCTCTCTTCTTGAGCGATCTCCACA; assay: QCM-D on gold electrode, Langmuir fit of 3rd harmonic frequency; conditions: 137 mM NaCl, 2.7 mM KCl; PBS pH 7.4; flow; immobilised aptamer; no clear plateau to 500 nM; some non-specific binding likely
# [2] = test system: HS-Apt-PEN (DNA, aptamer) CTGAATTGGATCTCTCTTCTTGAGCGATCTCCACA; assay: LSPR on AuNPs, Langmuir fit; conditions: 137 mM NaCl, 2.7 mM KCl; PBS pH 7.4; flow; MCH and salmon sperm DNA passivation; immobilised aptamer
# [3] = test system: HS-Apt-OTC (DNA, aptamer) GGGGGCACACATGTAGGTGCTGTCCAGGTGTGGTTGTGGT; assay: LSPR and QCM-D selectivity test; conditions: 137 mM NaCl, 2.7 mM KCl; PBS pH 7.4; 100 nM compound
KD [1],KD [2],binding [3],SMILES
50 nM,20 nM,,CC1(C)S[C@@H]2[C@H](NC(=O)Cc3ccccc3)C(=O)N2[C@H]1C(=O)O
,,yes,CN(C)[C@@H]1C(=O)C(C(N)=O)=C(O)[C@@]2(O)C(=O)C3=C(O)c4c(O)cccc4[C@@](C)(O)[C@H]3[C@H](O)[C@@H]12
